# In patent publication US20030114666A1, “Antibacterial agents” (priority 2001, published 2003):
# pIC50: −log10 of the molar value. Where two headings read alike, the source gives them in different places.
# Key:
# S. aureus 29213 = assay: Test A antibacterial assay, standard microtitration (MIC); format: cell-based; conditions: Gram positive, S. aureus 29213
# Description: (§1) Test A-Antibacterial Assay
# (§2) The compounds of the present invention were tested against an assortment of Gram-negative and Gram-positive organisms using standard microtitration techniques (Cohen, et al., Antimicrob. Agents Chemother., 1985;28:766; Heifetz, et al., Antimicrob. Agents Chemother:, 1974;6:124). […]
# E. faecalis RB1 = assay: as above; format: cell-based; conditions: Gram positive, E. faecalis RB1
# Description: as §1, §2
# E. coli B90 = assay: as above; format: cell-based; conditions: Gram negative, E. coli B90
# Description: as §1, §2
# E. coli Tol C = assay: as above; format: cell-based; conditions: for Minimum Inhibitory Concentrations E. coli Tol C: Gram negative
# Description: as §1, §2
# E. coli MC 4100 = assay: as above; format: cell-based; conditions: Gram negative, E. coli MC 4100
# Description: as §1, §2
# S. pyogenes C203 = assay: as above; format: cell-based; conditions: Gram positive, S. pyogenes C203
# Description: as §1, §2
# E. coli gyrase = E. coli gyrase (Escherichia coli, UniProt P0AES4+P0AES6); assay: biochemical
# [1] = Test E pharmacokinetic behavior in dogs; format: in vivo; conditions: male, beagle, plasma; Dog; 5 mg/kg IV infusion over 15 minutes
# Description: (§3) Test E-Pharmacokinetic Behavior or Quinazolinediones vs. 3-Aminoquinazolinediones
# (§4) The compounds of the present invention were tested for pharmacokinetic behavior against the structurally related 3-aminoquinazolinediones in rats, dogs and monkeys. The representative result of the evaluation for compound 4b is shown in Table 6 compared to a structurally similar 3-aminoquinazolinedione.
# Male Beagle Dogs were dosed with compound dissolved in D5W at 5 mg/kg IV Infusion over 15 minutes. Blood samples will be collected at 0, 0.167, 0.25, 0.33, 0.5, 1, 2, 4, 6, 8, 12 and 24 hours post dose.
# (§5) Plasma from all samples were harvested following centrifugaltion and stored frozen until plasma concentrations were determined using liquid chromatography/mass spectroscopy methods. The concentration/time profile for each compound in each animal species was analyzed using non-compartmental pharmacokinetic analysis approach. In the table, clearance is defined as the volume of fluid cleared of drug from the body per unit of time. Clearance is a quantitative assessment of drug elimination. Drug elimination is the irreversible removal of drug from the body by all routes of elimination.
# [2] = Test E pharmacokinetic behavior in rats; format: in vivo; conditions: male, Wistar, plasma; Rat; 1 mg/kg IV infusion in D5W over 5 minutes
# Description: as §3, §4
# In this study, compounds were administered to male Wistar rats and were dosed at 1 mg/kgIV infusion in D5W over 5 minutes. Blood samples were drawn at 0, 0.083, 0.167, 0.25, 0.5, 1, 2, 4, 6, 8, 12, and 24 hours post dose.
# as §5
# [3] = Test E pharmacokinetic behavior in monkeys; format: in vivo, Male Cynomologous Monkeys; conditions: male, plasma; Monkey; 5 mg/kg IV infusion over 15 minutes
# Description: as §3, §4
# Male Cynomologous Monkeys were dosed with compound dissolved in D5W at 5 mg/kg IV Infusion over 15 minutes. Blood samples were collected at 0, 0.167, 0.25, 0.33, 0.5, 1, 2, 4, 6, 8, 12 and 24 hours post dose.
# as §5
# [4] = supercoiling of relaxed pBR322, 30 minutes at 37° C.
# E. coli gyrase, sequence (P0AES4 whole entry, the tested form may be a part, one chain of several): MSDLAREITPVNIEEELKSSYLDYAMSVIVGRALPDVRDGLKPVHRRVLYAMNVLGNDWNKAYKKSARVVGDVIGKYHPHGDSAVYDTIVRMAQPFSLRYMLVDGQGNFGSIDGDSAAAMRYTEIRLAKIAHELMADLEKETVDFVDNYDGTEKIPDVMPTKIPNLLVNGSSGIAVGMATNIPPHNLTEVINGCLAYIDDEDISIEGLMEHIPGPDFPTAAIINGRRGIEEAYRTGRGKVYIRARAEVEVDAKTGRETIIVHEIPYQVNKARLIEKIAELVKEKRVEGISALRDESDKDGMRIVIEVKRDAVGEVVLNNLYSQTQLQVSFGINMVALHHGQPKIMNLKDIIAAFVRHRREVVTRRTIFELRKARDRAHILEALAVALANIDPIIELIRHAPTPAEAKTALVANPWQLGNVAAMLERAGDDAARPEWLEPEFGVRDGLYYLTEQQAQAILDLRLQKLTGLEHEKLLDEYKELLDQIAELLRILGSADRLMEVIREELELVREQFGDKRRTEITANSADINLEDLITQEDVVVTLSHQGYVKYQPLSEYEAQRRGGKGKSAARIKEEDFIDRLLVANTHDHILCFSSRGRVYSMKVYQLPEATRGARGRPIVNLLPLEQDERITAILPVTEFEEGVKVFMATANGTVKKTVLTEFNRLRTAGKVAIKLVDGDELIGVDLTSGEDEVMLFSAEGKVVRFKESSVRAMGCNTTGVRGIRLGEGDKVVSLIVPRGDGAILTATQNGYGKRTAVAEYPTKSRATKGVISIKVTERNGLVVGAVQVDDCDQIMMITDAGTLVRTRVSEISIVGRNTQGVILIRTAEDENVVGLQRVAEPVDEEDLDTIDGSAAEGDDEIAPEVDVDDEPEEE
Structure (SMILES),Minimum Inhibitory Concentrations S. aureus 29213 (S. aureus 29213) [µg/mL],Minimum Inhibitory Concentrations E. faecalis RB1 (E. faecalis RB1) [µg/mL],Minimum Inhibitory Concentrations E. coli B90 (E. coli B90) [µg/mL],Minimum Inhibitory Concentrations E. coli Tol C (E. coli Tol C) [µg/mL],Minimum Inhibitory Concentrations E. coli MC 4100 (E. coli MC 4100) [µg/mL],Minimum Inhibitory Concentrations S. pyogenes C203 (S. pyogenes C203) [µg/mL],pIC50 (E. coli gyrase; [4]),clearance [1] [mL/min/kg],half-life [1] [h],clearance [2] [mL/min/kg],half-life [2] [h],clearance [3] [mL/min/kg],half-life [3] [h],other results
"CC1COc2c(N3CC[C@@H]([C@H](C)N)C3)c(F)c(N)c3c(=O)[nH]c(=O)n1c23.Cl (stereo partly drawn) [Example 16d, 7-Amino-9-[9-(R)-3-((S)-1-aminoethyl)pyrrolidin-1-yl)-8-fluoro-3-methyl-2,3-dihydro-1-oxa-3a,5-diazaphenalene-4,6-dione Hydrochloride]",1.0,1.0,16.0,4.0,>64.0,0.5,,,,,,,,pIC50 (E. coli gyrase): 4.60
"Cc1c(N2CCC(C(N)CF)C2)c(F)cc2c(=O)[nH]c(=O)n(C3CC3)c12.Cl (stereo not drawn) [Example 19f, 7-[3-(1-Amino-2-fluoroethyl)pyrrolidin-1-yl]-1-cyclopropyl-6-fluoro-8-methyl-1H-quinazolinedione Hydrochloride]",0.13,0.06,0.25,0.13,4.0,0.06,5.74,,,,,,,
"Cc1c(-c2csc(CN)c2)c(F)cc2c(=O)[nH]c(=O)n(C3CC3)c12.Cl [Example 22j, 7-(5-Aminomethylthiophen-3-yl)-1-cyclopropyl-6-fluoro-8-methyl-1H-quinazoline-2,4-dione Hydrochloride]",,,,,,,5.85,,,,,,,"MIC (S. aureus 29213; Staphylococcus aureus, read-out: Minimum Inhibitory Concentrations S. aureus 29213): 1 µg/mL; MIC (E. faecalis RB1; Enterococcus faecalis, read-out: Minimum Inhibitory Concentrations E. faecalis RB1): 2 µg/mL; MIC (E. coli B90; Escherichia coli, read-out: Minimum Inhibitory Concentrations E. coli B90): 1 µg/mL; MIC (E. coli Tol C; Escherichia coli, read-out: Minimum Inhibitory Concentrations E. coli Tol C): 1 µg/mL; MIC (E. coli MC 4100; Escherichia coli, MC4100, read-out: Minimum Inhibitory Concentrations E. coli MC 4100): 8 µg/mL; MIC (S. pyogenes C203; Streptococcus pyogenes, read-out: Minimum Inhibitory Concentrations S. pyogenes C203): 0.25 µg/mL"
Cc1c(N2CC[C@@H]([C@H](C)N)C2)c(F)cc2c(=O)[nH]c(=O)n(C3CC3)c12 [drawing 387],,,,,,,,8.7,6.3,47,1.9,17,4.1,
Cc1c(N2CC[C@@H]([C@H](C)N)C2)c(F)cc2c(=O)n(N)c(=O)n(C3CC3)c12 [reference compound],,,,,,,,21,2.4,62,2,24,2.2,
